Results published in patent US7169932B2 (priority 2001, dated 2007).
pEC50, pKi: −log10 of the molar value. Like-named read-outs stand apart in the source and are kept apart here.

Assays:
HIV-1 protease (Q7S) = target: T1, HIV-1 protease (Q7S) (Human immunodeficiency virus type 1 group M subtype B, UniProt P04585, Q495S); assay: HIV-1 Protease RET Assay; format: biochemical; conditions: for pKi: Ki, table of drawn compounds, unit inferred; for Ki: Ave. Ki (nM), RET assay, Q7S enzyme, pH 4.8, 37 C
T1 construct: made in house
Procedure: Ki's for the inhibitors of HIV-1 protease were determined using a resonance energy transfer (RET) assay. […] This enzyme is first partially purified as inclusion bodies from cell lysate. It is then solublized in 8M urea and passed through a Q-Sepharose column (Pharmacia) for further purification. To refold this protein, samples containing Q7S is dialyzed into 50 mM sodium phosphate pH 7.0, 50 mM NaCl, 10 mM DTT, and 10% glycerol.
The commercially available peptide substrate (Molecular Probes Cat. # H-2930) RE(EDANS)SQNYPIVQK(DABCYL)R is used to assess activity and Ki's. This peptide is cleaved quantitatively by HIV-1 Pr at the Tyr-Pro bond. The EDANS fluorophore absorbs at 340 nm and emits at 490 nm. The reaction is carried out in a 96 well plate in a total volume of 100 μL and is run for 12 minutes at 37 C under steady-state conditions with 5 μM substrate and 2 nM active dimer enzyme concentration. The literature value Km for this substrate and enzyme is 103+/−8 μM (See Matayoshi, et al., “Novel Fluorogenic Substrates for Assaying Retroviral Proteases by Resonance Energy Transfer,” Science 247, 954 (1990)). The buffer for this reaction is 0.1M sodium acetate pH 4.8, 1M NaCl, 1 mM EDTA, 5 mM dithiothreitol, 10% dimethyl sulfoxide and 1 mg/ml bovine serum albumin. Inhibition curves are fit using the Morrison tight binding equation.

HIV-1 = assay: Cytopathic Effect (CPE) Inhibition Assay (XTT dye reduction); format: cell-based; conditions: for pEC50: Human immunodeficiency virus 1; for EC50: Human immunodeficiency virus 1, 144 h, read-out: Ave CPE EC50 (mM)
Procedure: T-cell lines, CEM-SS, and MT-2, and viruses HIV-1 RF and HIV-1 NL4–3 (pNL4–3) were obtained from the National Institutes of Health (AIDS Research and Reference Reagent Program, Bethesda, Md.).
The ability of compounds to protect cells against HIV infection was measured by the […] dye reduction method, essentially as described (See Pauwels, R. Balzarini, J. Baba, M. Snoeck, R. Schols, D. Herdewijn, P. Desmyter, J. and De Clercq, E. 1988, “Rapid and automated tetrazolium-based colorimetric assay for the detection of anti-HIV compounds,”. J Virol Methods., 20: 309–321 and Weislow, O. S. Kiser, R. Fine, D. L. Bader, J. Shoemaker, R. H. and Boyd, M. R. 1989. “New soluble-formazan assay for HIV-1 cytopathic effects: application to high-flux screening of synthetic and natural products for AIDS-antiviral activity”. J. Natl. Cancer Inst. 81:577–586). Subject cells were infected with test virus at an moi of 0.025 to 0.819 or mock infected with medium only and added at 2×10^4 cells per well into 96 well plates containing half-log dilutions of test compounds. Six days later, 50 μl of XTT (1 mg/ml XTT tetrazolium, […] phenazine methosulfate) was added to the wells and the plate was reincubated for four hours. Viability, as determined by the amount of XTT formazan produced, was quantified spectrophotometrically by absorbance at 450 nm. Data from CPE assays were expressed as the percent of formazan produced in compound-treated cells compared to formazan produced in wells of uninfected, compound-free cells. The fifty percent effective concentration (EC50) was calculated as the concentration of compound that effected an increase in the percentage of formazan production in infected, compound-treated cells to 50% of that produced by uninfected, compound-free cells. The 50% cytotoxicity concentration (CC50) was calculated as the concentration of compound that decreased the percentage of formazan produced in uninfected, compound-treated cells to 50% of that produced in uninfected, compound-free cells. The therapeutic index was calculated by dividing the cytotoxicity (CC50) by the antiviral activity (EC50).

| Structure (SMILES) | pKi (HIV-1 protease (Q7S)) | pEC50 (HIV-1) | Ki (HIV-1 protease (Q7S)) | EC50 (HIV-1) |
| --- | --- | --- | --- | --- |
| Cc1c(O)cccc1C(=O)N[C@@H](Cc1ccccc1)[C@H](O)C(=O)N1CSC(C)(C)[C@H]1C(=O)NCC(C)(C)C | ≥ 10.00 | 7.28 |  |  |
| Cc1c(O)cccc1C(=O)N[C@@H](Cc1ccccc1)[C@H](O)C(=O)N1CSC(C)(C)[C@H]1C(=O)NCC(=O)c1ccccc1 [Example A10, (R)-3-((2S,3S)-2-Hydroxy-3-{[1-(3-hydroxy-2-methyl-phenyl)-methanoyl]-amino}-4-phenyl-butanoyl)-5,5-dimethyl-thiazolidine-4-carboxylic acid (2-oxo-2-phenyl-ethyl)-amide] |  |  | 51 nM | > 1000 nM |
| Cc1ccccc1CNC(=O)[C@H]1N(C(=O)[C@@H](O)[C@H](Cc2ccccc2)NC(=O)c2cccc(O)n2)CSC1(C)C [Example B48] |  |  | 12 nM | > 3200 nM |
| Cc1noc(C)c1C(=O)N[C@@H](Cc1ccccc1)[C@H](O)C(=O)N1CSC(C)(C)[C@H]1C(=O)NCc1ccccc1Cl [Example B23, 3,5-Dimethyl-isoxazole-4-carboxylic acid {1-benzyl-3-[4-(2-chloro-benzylcarbamoyl)-5,5-dimethyl-thiazolidin-3-yl]-2-hydroxy-3-oxo-propyl}-amide] |  |  | 0.42 nM | 1420 nM |
| Cc1ccccc1CNC(=O)[C@H]1N(C(=O)[C@@H](O)[C@H](Cc2ccccc2)NC(=O)c2ccon2)CSC1(C)C [Example B3, Isoxazole-3-carboxylic acid {(1S,2S)-1-benzyl-3-[(R)-5,5-dimethyl-4-(2-methyl-benzylcarbamoyl)-thiazolidin-3-yl]-2-hydroxy-3-oxo-propyl}-amide] |  |  | 4 nM | 409 nM |
| COCCNC(=O)[C@H]1N(C(=O)[C@@H](O)[C@H](Cc2ccccc2)NC(=O)c2cccc(O)c2C)CSC1(C)C | 9.62 | 6.80 |  |  |
| Cc1ccccc1CNC(=O)[C@H]1N(C(=O)[C@@H](O)[C@H](Cc2ccccc2)NC(=O)c2cc(C(C)(C)C)on2)CSC1(C)C | 6.67 | ≤ 5.00 |  |  |
| Cc1ccccc1CNC(=O)[C@H]1N(C(=O)[C@@H](O)[C@H](Cc2ccccc2)NC(=O)c2sc(N)nc2C)CSC1(C)C [Example B15, 2-Amino-4-methyl-thiazole-5-carboxylic acid {(S)-1-benzyl-3-[5,5-dimethyl-4-(2-methyl-benzylcarbamoyl)-thiazolidin-3-yl]-2-hydroxy-3-oxo-propyl}-amide] |  |  | 2 nM | 1090 nM |
| Cc1c(O)cccc1C(=O)N[C@@H](Cc1ccccc1)[C@H](O)C(=O)N1CSC(C)(C)[C@H]1C(=O)NCc1ccc(F)c(F)c1F | 9.96 | 6.48 |  |  |
| Cc1ccccc1CN(CCO)C(=O)[C@H]1N(C(=O)[C@@H](O)[C@H](Cc2ccccc2)NC(=O)c2cccc(O)c2C)CSC1(C)C [Example A50, (R)-3-((2S,3S)-2-Hydroxy-3-{[1-(3-hydroxy-2-methyl-phenyl)-methanoyl]-amino}-4-phenyl-butanoyl)-5,5-dimethyl-thiazolidine-4-carboxylic acid (2-hydroxy-ethyl)-(2-methyl-benzyl)-amide] |  |  | 0.26 nM | 224 nM |
| C=CCNC(=O)[C@H]1N(C(=O)[C@@H](O)[C@H](Cc2ccccc2)NC(=O)[C@@H]2CCCO2)CSC1(C)C | 7.76 | 5.48 |  |  |
| C=CCN(C)C(=O)[C@H]1N(C(=O)[C@@H](O)[C@H](Cc2ccccc2)NC(=O)c2cccc(O)c2C)CSC1(C)C [Example A23, (R)-3-((2S,3S)-2-Hydroxy-3-{[1-(3-hydroxy-2-methyl-phenyl)-methanoyl]-amino}-4-phenyl-butanoyl)-5,5-dimethyl-thiazolidine-4-carboxylic acid allyl-methyl-amide] |  |  | 0.65 nM | 72 nM |
| Cc1c(O)cccc1C(=O)N[C@@H](Cc1ccccc1)[C@H](O)C(=O)N1CSC(C)(C)[C@H]1C(=O)NCc1cccc(CN(C)C)c1 | 7.98 | 5.49 |  |  |
| C#CCNC(=O)[C@H]1N(C(=O)[C@@H](O)[C@H](Cc2ccccc2)NC(=O)c2ccc(C)c(O)c2C)CSC1(C)C [Example B21, 3-(2-Hydroxy-3-{[1-(3-hydroxy-2,4-dimethyl-phenyl)-methyanoyl]-amino}-4-phenyl-butznoyl)-5,5-dimethyl-thiazolidine-4-carboxylic acid prop-2-ynylamide] |  |  | 4.6 nM | 598 nM |
| C=CCNC(=O)[C@H]1N(C(=O)[C@@H](O)[C@H](Cc2ccccc2)NC(=O)c2ccc(C)c(O)c2C)CSC1(C)C [Example B20, (R)-3-((2S,3S)-2-Hydroxy-3-{[1-(3-hydroxy-2,4-dimethyl-phenyl)-methanoyl]-amino}-4-phenyl-butanoyl)-5,5-dimethyl-thiazolidine-4-carboxylic acid allylamide] |  |  | 2.1 nM | 427 nM |
| Cc1cc(Cl)ccc1CNC(=O)[C@H]1N(C(=O)[C@@H](O)[C@H](Cc2ccccc2)NC(=O)c2cccc(O)c2C)CSC1(C)C | 9.59 | 6.68 |  |  |
| Cc1noc(C)c1C(=O)NC(Cc1ccccc1)C(O)C(=O)N1CSC(C)(C)C1C(=O)NCc1c(F)cccc1F (centres unmarked) [Example B25, 3,5-Dimethyl-isoxazole-4-carboxylic acid {1-benzyl-3-[4-(2,6-difluoro-benzylcarbamyl)-5,5-dimethyl-thiazolidin-3-yl]-2-hydroxy-3-oxo-propyl}-amide] |  |  | 2.7 nM | 1790 nM |
| C#CCNC(=O)[C@H]1N(C(=O)[C@@H](O)[C@H](Cc2ccccc2)NC(=O)[C@@H]2CCCO2)CSC1(C)C | 7.77 | 5.43 |  |  |
| C=C(C)CNC(=O)[C@H]1N(C(=O)[C@@H](O)[C@H](Cc2ccccc2)NC(=O)c2cccc(O)c2C)CSC1(C)C [Example A28, (R)-3-((2S,3S)-2-Hydroxy-3-{[1-(3-hydroxy-2-methyl-phenyl)-methanoyl]-amino}-4-phenyl-butanoyl)-5,5-dimethyl-thiazolidine-4-carboxylic acid (2-methyl-allyl)-amide] |  |  | < 0.1 nM | 41 nM |
| Cc1c(O)cccc1C(=O)N[C@@H](Cc1ccccc1)[C@H](O)C(=O)N1CSC(C)(C)[C@H]1C(=O)NCCC(C)(C)C | 8.33 | 5.97 |  |  |
| Cc1ncc(C(=O)N[C@@H](Cc2ccccc2)[C@H](O)C(=O)N2CSC(C)(C)[C@H]2C(=O)NCc2ccccc2C)c(=O)[nH]1 | 6.68 | ≤ 5.00 |  |  |
| Cc1ccccc1CNC(=O)[C@H]1N(C(=O)[C@@H](O)[C@H](Cc2ccccc2)NC(=O)c2c[nH]cn2)CSC1(C)C | 7.25 | ≤ 5.00 |  |  |
| Cc1c(O)cccc1C(=O)N[C@@H](Cc1ccccc1)[C@H](O)C(=O)N1CSC(C)(C)[C@H]1C(=O)NCCC(F)(F)F [Example A45, (R)-3-((2S,3S)-2-Hydroxy-3-{[1-(3-hydroxy-2-methyl-phenyl)-methanoyl]-amino}-4-phenyl-butanoyl)-5,5-dimethyl-thiazolidine-4-carboxylic acid (3,3,3-trifluoro-propyl)-amide] |  |  | 0.51 nM | 165 nM |
| Cc1ccccc1CNC(=O)[C@@H]1C[C@H](F)CN1C(=O)[C@@H](O)[C@H](Cc1ccccc1)NC(=O)c1cccc(O)c1C [Example C3, (2S,4S)-4-Fluoro-1-[(2S,3S)-2-hydroxy-3-(3-hydroxy-2-methyl-benzoylamino)-4-phenyl-butyryl]-pyrrolidine-2-carboxylic acid 2-methyl-benzylamide] |  |  | 1.3 nM | 500 nM |
| Cc1ccc(C(=O)N[C@@H](Cc2ccccc2)[C@H](O)C(=O)N2CSC(C)(C)[C@H]2C(=O)CCC(F)(F)F)c(C)c1O | 8.02 | 6.14 |  |  |
